Several values for one entry are separate records, joined by “and”; a condition that tells them apart may be missing. Equal entries are not always repeated.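 Following 48 hours of exposure in 96-well plates, responses at five concentrations were used to interpolate endpoints linearly. Here, GI50 denotes the concentration required for 50% inhibition of growth. TGI: concentration producing complete growth inhibition.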
Columns and labels:
Assay in all cases: NCI-60 cell line screen, 48 h
HCC-2998 colon = test system: HCC-2998 colon
U251 CNS = test system: U251 CNS
SF-295 CNS = test system: SF-295 CNS
LXFL 529 NSCLC = test system: LXFL 529 NSCLC
OVCAR-4 ovarian = test system: OVCAR-4 ovarian
SF-268 CNS = test system: SF-268 CNS
OVCAR-3 ovarian = test system: OVCAR-3 ovarian
SNB-75 CNS = test system: SNB-75 CNS
SNB-78 CNS = test system: SNB-78 CNS
SR leukemia = test system: SR leukemia
SK-MEL-2 melanoma = test system: SK-MEL-2 melanoma
LOX IMVI melanoma = test system: LOX IMVI melanoma
ACHN renal = test system: ACHN renal
DLD-1 colon = test system: DLD-1 colon
IGROV1 ovarian = test system: IGROV1 ovarian
UO-31 renal = test system: UO-31 renal
DMS 273 small cell lung = test system: DMS 273 small cell lung
HOP-92 NSCLC = test system: HOP-92 NSCLC
RXF 393 renal = test system: RXF 393 renal
NCI-H23 lung = test system: NCI-H23 lung
HCT-116 colon = test system: HCT-116 colon
M14 melanoma = test system: M14 melanoma
786-0 renal = test system: 786-0 renal
NCI-H226 lung = test system: NCI-H226 lung
SW-620 colon = test system: SW-620 colon
RPMI-8226 leukemia = test system: RPMI-8226 leukemia
M19-MEL melanoma = test system: M19-MEL melanoma
NCI-H522 lung = test system: NCI-H522 lung
HOP-18 NSCLC = test system: HOP-18 NSCLC
HCT-15 colon = test system: HCT-15 colon
SN12C renal = test system: SN12C renal
SK-MEL-5 melanoma = test system: SK-MEL-5 melanoma
XF 498 CNS = test system: XF 498 CNS
KM20L2 colon = test system: KM20L2 colon
HT29 colon = test system: HT29 colon
HOP-62 NSCLC = test system: HOP-62 NSCLC
SNB-19 CNS = test system: SNB-19 CNS
CAKI-1 renal = test system: CAKI-1 renal
KM12 colon = test system: KM12 colon
NCI-H460 lung = test system: NCI-H460 lung
SK-OV-3 ovarian = test system: SK-OV-3 ovarian
MALME-3M melanoma = test system: MALME-3M melanoma
HL-60(TB) leukemia = test system: HL-60(TB) leukemia
UACC-257 melanoma = test system: UACC-257 melanoma
OVCAR-8 ovarian = test system: OVCAR-8 ovarian
EKVX NSCLC = test system: EKVX NSCLC
SF-539 CNS = test system: SF-539 CNS
UACC-62 melanoma = test system: UACC-62 melanoma
SK-MEL-28 melanoma = test system: SK-MEL-28 melanoma
CCRF-CEM leukemia = test system: CCRF-CEM leukemia
DMS 114 small cell lung = test system: DMS 114 small cell lung
TK-10 renal = test system: TK-10 renal

## COc1cc(C2c3cc4c(cc3[C@@H](NCCN(C)C)C3COC(=O)[C@H]23)OCO4)cc(OC)c1O (stereo not given in full)
HCC-2998 colon
  GI50: 383 nM and 1210 nM
  TGI: 1690 nM and 2640 nM
U251 CNS
  TGI: 365 nM and 1330 nM
SF-295 CNS
  GI50: 65.2 nM and 150 nM
  TGI: 1050 nM and 1660 nM
LXFL 529 NSCLC
  TGI: 6900 nM and 13200 nM
OVCAR-4 ovarian
  TGI: 5190 nM and 13300 nM
SF-268 CNS
  GI50: 137 nM and 316 nM
  TGI: 1490 nM and 4290 nM
OVCAR-3 ovarian
  TGI: 2810 nM and 3310 nM
SNB-75 CNS
  TGI: 674 nM
SNB-78 CNS
  GI50: 1240 nM and 3250 nM
  TGI: 68300 nM and 77800 nM
SR leukemia
  GI50: 14400 nM
  TGI: > 100000 nM
SK-MEL-2 melanoma
  GI50: 397 nM and 1220 nM
  TGI: 1450 nM and 3190 nM
LOX IMVI melanoma
  GI50: 36.6 nM and 119 nM
  TGI: 690 nM and 1290 nM
ACHN renal
  GI50: < 10 nM and 26.9 nM
  TGI: 45 nM and 192 nM
DLD-1 colon
  TGI: 4030 nM and 7430 nM
IGROV1 ovarian
  GI50: 391 nM and 1060 nM
  TGI: 2390 nM and 3570 nM
UO-31 renal
  TGI: 633 nM and 1320 nM
DMS 273 small cell lung
  GI50: 13.7 nM and 32.9 nM
  TGI: 803 nM and 1360 nM
HOP-92 NSCLC
  TGI: 92.8 nM and 335 nM
RXF 393 renal
  GI50: 301 nM and 1110 nM
  TGI: 2080 nM and 4370 nM
NCI-H23 lung
  GI50: 103 nM and 228 nM
  TGI: 673 nM and 1410 nM
HCT-116 colon
  GI50: 272 nM and 715 nM
  TGI: 2180 nM and 3790 nM
M14 melanoma
  TGI: 1610 nM and 2310 nM
786-0 renal
  GI50: 35.5 nM and 132 nM
  TGI: 457 nM and 1100 nM
NCI-H226 lung
  TGI: 48.1 nM and 152 nM
SW-620 colon
  TGI: 3510 nM and 3710 nM
RPMI-8226 leukemia
  TGI: > 100000 nM and 12000 nM
M19-MEL melanoma
  TGI: 4110 nM and 7180 nM
NCI-H522 lung
  TGI: 1760 nM and 2200 nM
HOP-18 NSCLC
  GI50: 108 nM and 428 nM
  TGI: 2630 nM and 6980 nM
HCT-15 colon
  GI50: 1020 nM
  TGI: 2630 nM
SN12C renal
  GI50: 25.6 nM and 84 nM
  TGI: 406 nM and 982 nM
SK-MEL-5 melanoma
  TGI: 1090 nM and 1550 nM
XF 498 CNS
  TGI: 978 nM and 2020 nM
KM20L2 colon
  GI50: 425 nM and 1140 nM
  TGI: 2160 nM and 3620 nM
HT29 colon
  GI50: 1360 nM
  TGI: 5000 nM
HOP-62 NSCLC
  GI50: 19.1 nM and 49.1 nM
  TGI: 191 nM and 372 nM
SNB-19 CNS
  TGI: 5180 nM and 9620 nM
CAKI-1 renal
  GI50: 306 nM and 652 nM
  TGI: 3460 nM and 4210 nM
KM12 colon
  TGI: 2220 nM and 2630 nM
NCI-H460 lung
  TGI: 135 nM and 326 nM
SK-OV-3 ovarian
  GI50: 39.3 nM and 103 nM
  TGI: 565 nM and 649 nM
MALME-3M melanoma
  TGI: 1610 nM and 2300 nM
HL-60(TB) leukemia
  TGI: 124 nM and 121 nM
UACC-257 melanoma
  GI50: 526 nM and 1620 nM
  TGI: 4140 nM and 6160 nM
OVCAR-8 ovarian
  GI50: 265 nM and 1080 nM
  TGI: 1720 nM and 2720 nM
EKVX NSCLC
  GI50: 1560 nM and 3290 nM
  TGI: 5080 nM and 11000 nM
SF-539 CNS
  TGI: 207 nM and 974 nM
UACC-62 melanoma
  GI50: 31.9 nM and 88 nM
  TGI: 319 nM and 834 nM
SK-MEL-28 melanoma
  TGI: 2140 nM and 3380 nM
CCRF-CEM leukemia
  GI50: 13.6 nM and 27.7 nM
  TGI: 417 nM and 352 nM
DMS 114 small cell lung
  GI50: 49.1 nM and 347 nM
  TGI: 533 nM and 2110 nM
TK-10 renal
  TGI: 3580 nM and 5200 nM
